PMC9574860, “Chemical Toolkit for PARK7: Potent, Selective, and High-Throughput” (Journal of Medicinal Chemistry, 2022)
Read-outs that look alike come from different tables or passages of the source.

Tests used:
UCHL1 [1] = target: T1, UCHL1 (Homo sapiens, UniProt P09936); assay: Gel-based competition assay with probe 8RK59, UCHL1 band; type: biochemical; details: compound 2 μM, 1 h; PARK7 and UCHL1 1 μM each; then 8RK59 2 μM 30 min; Figure 3B
T1 sequence (P09936 1-223): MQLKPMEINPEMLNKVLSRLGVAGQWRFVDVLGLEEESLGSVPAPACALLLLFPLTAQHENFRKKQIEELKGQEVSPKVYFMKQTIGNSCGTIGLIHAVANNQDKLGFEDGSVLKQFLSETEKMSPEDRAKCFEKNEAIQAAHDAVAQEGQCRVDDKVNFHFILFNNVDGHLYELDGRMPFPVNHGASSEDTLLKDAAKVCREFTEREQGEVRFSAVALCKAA
Description: To assess the inhibitory potency and selectivity of these compounds toward PARK7 and UCHL1, we performed a gel-based competition assay (Figure 3A).[36] A mixture of equal amounts of PARK7 and UCHL1 (1 μM) was treated with each of the synthesized compounds (2 μM) for 1 h, followed by incubation with fluorescent probe 8RK59 (2 μM) for 30 min. Samples were resolved by SDS-PAGE, and the gel was scanned for fluorescence. Inhibition of PARK7 or UCHL1 is reflected by the disappearance of their corresponding bands (Figure 3B). […] The inhibition potential of JYQ-88 against PARK7 was assessed in a similar assay where PARK7 was incubated with a serial dilution of JYQ-88 before treatment with probe 8RK59 (Figure 3C). A clear inhibition is visible at 0.5 μM, and full inhibition is achieved between 1 and 2 μM. […] The selectivity of JYQ-88 between UCHL1 and PARK7 was further confirmed in a direct competition assay between equal amounts of PARK7 and UCHL1 (Figure 3F). PARK7 inhibition was observed starting from 0.5 μM JYQ-88, whereas inhibition of UCHL1 was only detected at 20 μM. Since JYQ-88 and 8RK64 are enantiomers, we assumed that the interactions with PARK7 should be similar. To investigate how the chiral center influences the selectivity, we solved the crystal structure of the PARK7−JYQ-88 complex with 1.42 Å resolution (Figure 3G, Table S1, PDB 7PA3). The global positioning of the inhibitor in between the two α-helices was similar to that for 8RK64. […] This way, the thiazolo-pyridine part of JYQ-88 is bound in a similar manner as 8RK64 and the earlier observed interactions are largely the same. The formation of the isothiourea moiety, stabilized by the interaction with Glu18, and the interaction between the thiazole amine and the amide NH2 of the Asn76 side chain are still present. However, the interaction between the azidoacetyl carbonyl with the Leu128 backbone carbonyl can no longer be observed due to the rotation of the azidoacetyl moiety. The Lys132 residue also seems to have rotated (compared to Figure 2C).
The assay was performed in Tris buffer as described above.

UCHL1 [2] = target: T1, UCHL1; assay: UCHL1 activity assay (Ub-Rho-Morpholine or Ub-AMC substrate); type: biochemical; details: UCHL1 1 nM, 1 h preincubation
Description: The assay was performed in a buffer containing 50 mM Tris·HCl, 100 mM NaCl at pH 7.5, 2.0 mM cysteine, 1 mg/mL 3-[(3-cholamidopropyl)dimethylammonio]propanesulfonic acid (CHAPS), and 0.5 mg/mL bovine serum albumin and conducted in a 384-well plate (Corning 3820) with a reaction volume 20 μL in triplicate. The compounds were dissolved in DMSO as 10, 1, and 0.1 mM stock solutions and were transferred to obtain a 12-point serial dilution of 0.05 to 200 μM. Next, UCHL1 (15 μL, final concentration of 1 nM) was dispensed with a Biotek MultiFlowFX liquid dispenser and incubated for 1 h, followed by dispensing the substrate Ub-Rho-Morpholine or Ub-AMC (5 μL, final concentration of 400 nM). The FI signal was monitored with a BMG Labtech PHERAstar plate reader (λex/em 487/535 nm or λex/em 350/450 nm) for 1 h. N-Ethylmaleimide (NEM, 10 mM) was used as a positive control (100% inhibition), and DMSO was used as a negative control (0% inhibition). All samples were normalized to the positive and negative controls and plotted against the inhibitor concentrations (in μM) using the built-in equation “[inhibitor] vs response – variable slope (four parameters), least-squares fit” with constraints “Bottom = 0” and “Top = 100” in GraphPad Prism 9.0.1 software to obtain the IC50 values.

DUBs = assay: DUB activity profiling in HEK293T cell lysate with general DUB probe Rho-Ub-PA; type: biochemical; details: compound 5 μM 1 h 37 °C, then Rho-Ub-PA 30 min, Figure S5
Description: Due to the structural similarity of PARK7 inhibitor JYQ-88 and UCHL1 inhibitor 8RK64 and the fact that many cyanimide-containing compounds have been identified as DUB inhibitors,[35],[37] we investigated the inhibitory potential of JYQ-88 and JYQ-92 toward DUBs. After treating the HEK293T cell lysate with JYQ-88 and JYQ-92, along with UCHL1 inhibitors, 6RK73 and 8RK64 as controls,[38] the remaining activity of DUBs was determined using the general DUB probe Rho-Ub-PA (Figure S5).[39]
Figure S5. Fluorescence labeling of DUBs to investigate their remaining activity by Rh-Ub-
PA after the treatment with PARK7 inhibitor JYQ-88 and probe JYQ-92. UCHL1 inhibitors,
6RK73 and 8RK64, were used as a control. HEK293T cell lysate was treated with 5 μM final
MOPS SDS running buffer (Novex, NuPAGE) and visualized by fluorescence scanning on a
Typhoon FLA 9500 (GE Healthcare Life Sciences) using a Rhodamine channel (λex/em
(1 picture or pasted object on this page, not shown here)

PARK7 and UCHL1 = assay: Labeling of a mixture of purified recombinant UCHL1 and PARK7 with probe 8RK59 (SDS-PAGE, fluorescence scanning); type: binding; details: UCHL1 and PARK7 1 μM each, probe 2 μM, 30 min 37 °C
Description: To determine the labeling efficiency of 8RK59 for both UCHL1 and PARK7, a mixture of equal amounts of purified recombinant UCHL1 and PARK7 (1 μM each) is labeled with 8RK59 (2 μM). […] To gain more insight into the inhibitor binding mode and to guide the design of novel PARK7 inhibitors, the crystal structure of the PARK7–8RK64 complex was solved with 1.21 Å resolution (Figure 2C, Table S1, PDB 7PA2). The structure is obtained as a monomer and compared to its apo structure (PDB 1J42). […] Globally, the inhibitor fits into a groove between two α-helices formed by residues 76–84 and 126–134 (Figure 2C, left panel). The covalent bond between 8RK64 and PARK7 is clearly visible (Figure 2C, middle panel). The cyanimide moiety of the inhibitor reacted to active site Cys106, thereby forming an isothiourea linkage, which is similar to what has been observed for the reaction of cyanamide-based and azanitrile inhibitors with cathepsins.[33],[34] The isothiourea moiety is stabilized by an H-bond between the NH and the carboxylate side chain of the nearby Glu18. Another interaction is found between the thiazole ring amine in the inhibitor and the amide NH2 of the Asn76 side chain. Hydrogen bonding between the carbonyl of the azidoacetyl moiety and the Leu128 backbone carbonyl via a water molecule is also observed. […]

UCHL1 [3] = target: T1, UCHL1; assay: JYQ-92 labeling in HEK293T cell lysate with UCHL1 knockdown; details: HEK293T lysate with PARK7 or UCHL1 knockdown, probe 1 μM; Figure 4D
Description: (§1) We next investigated the ability of JYQ-92 to label PARK7 activity in HEK293T cell lysates by treating with the increasing concentration of JYQ-92 (0–5 μM) for 1 h. […] To study its specificity toward PARK7 compared to UCHL1 in more detail, HEK293T cell lysates where we knockdown PARK7 or UCHL1 were treated with 1 μM final concentration of JYQ-92.
(§2) The samples were kept on ice and sonicated using 10 cycles of 30 s pulse on and 30 s pulse off (Bioruptor, Diagenode). […] For the labeling experiments, the prepared cell lysate was incubated with an indicated concentration of JYQ-92 in each experiment for 1 h at 37 °C. The reactions were stopped by adding NuPAGE LDS sample buffer (4×).

PARK7 [4] = target: T2, PARK7 (Homo sapiens, UniProt Q99497); assay: Probe JYQ-92 labeling of endogenous PARK7 in HEK293T cell lysate; details: 0–5 μM probe, 1 h, Figure 4C
T2 sequence (Q99497 1-189): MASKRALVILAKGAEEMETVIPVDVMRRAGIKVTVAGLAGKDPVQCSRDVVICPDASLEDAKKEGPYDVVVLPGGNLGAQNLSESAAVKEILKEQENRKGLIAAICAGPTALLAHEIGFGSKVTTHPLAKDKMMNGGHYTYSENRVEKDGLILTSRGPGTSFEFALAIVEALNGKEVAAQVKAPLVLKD
Description: as §1, §2

PARK7 [5] = target: T2, PARK7; assay: Probe labeling of purified recombinant PARK7 (SDS-PAGE, fluorescence scanning); type: binding; parameters: GST (N, cleaved yes); made in house; host or cells: E. coli BL21(DE3) Rosetta2
Excerpt: PARK7 inhibitor JYQ-88 was further converted into activity-based probes by installing SulfoCy5, Rhodamine110, or BodipyFL. We took advantage of the azide moiety in JYQ-88 and conjugated alkyne versions of these dyes using the copper(I)-catalyzed azide alkyne cycloaddition (CuAAC) to obtain compounds JYQ-92, JYQ-93, and JYQ-107 (Scheme 2). We next investigated the ability of the probes to label and visualize PARK7. […] The SulfoCy5 probe JYQ-92 and Rhodamine110 probe JYQ-107 labeled PARK7 already at 1 μM, while the BodipyFL probe JYQ-93 was less efficient than the other probes as PARK7 labeling was only observed from 5 μM.
All the labeling assays were performed in Tris buffer (50 mM Tris–HCl, 150 mM NaCl, 2 mM TCEP, pH 7.5). For labeling with the 8RK59 probe, 1 μM final concentrations of UCHL1 and PARK7 were individually or together incubated with 2 μM final concentrations of 8RK59 for 30 min at 37 °C, followed by protein visualization. For labeling with JYQ-92, JYQ-93, and JYQ-107, 1 μM final concentration of PARK7 was incubated with different concentrations (0, 0.1, 0.5, 1, 2, 5, and 10 μM) of the indicated probes for 1 h at 37 °C. […] These samples were resolved by SDS-PAGE using precast Bis-Tris gels (Invitrogen, NuPAGE) with MES SDS running buffer (Novex, NuPAGE).

SMILES | Inhibition of UCHL1 (disappearance of 8RK59-labeled band) (UCHL1 [1]) | IC50 (UCHL1 [2]; Figure 3E, read-out: UCHL1 IC50) | Effect on remaining DUB activity (Rho-Ub-PA labeled bands) (DUBs) | Labeling of PARK7 and UCHL1 by probe (PARK7 and UCHL1) | IC50 (UCHL1 [2]; read-out: UbRhoMP assay UCHL1 IC50) | Binding to UCHL1 in the cell lysate (UCHL1 [3]) | Probe concentration at which a clear PARK7 band (20 kDa) was observed (PARK7 [4]) | Binding to wild-type PARK7 (PARK7 [5]; probe 2 μM, 1 h, Figure 4B) | Probe concentration from which PARK7 labeling was observed (PARK7 [5]; purified PARK7 1 μM, 1 h 37 °C, Figure 4A)
N#CN1CC[C@H](C(=O)Nc2nc3c(s2)CN(C(=O)CN=[N+]=[N-])CC3)C1 [8RK64, reference compound] | fully inhibit | 0.23 µM | disappearance of the UCHL1 band |  |  |  |  |  | 
CC1=CC(C)=[N+]2C1=C(CCCCc1cn(CC(=O)N3CCc4nc(NC(=O)[C@H]5CCN(C#N)C5)sc4C3)nn1)c1c(C)cc(C)n1[B-]2(F)F [8RK59] |  |  |  | nearly equal extent |  |  |  |  | 
CC[N+]1=C(/C=C/C=C/C=C2/N(CCCCCC(=O)NCCCc3cn(CC(=O)N4CCc5nc(NC(=O)[C@@H]6CCN(C#N)C6)sc5C4)nn3)c3ccc(S(=O)(=O)O)cc3C2(C)C)C(C)(C)c2cc(S(=O)(=O)[O-])ccc21 [JYQ-92] |  |  | no influence on DUB activity |  | 19.8 µM | not to UCHL1 | 0.5 µM | only binds to the active wild-type PARK7 | 1 µM
